ChEMBL document CHEMBL1159258, “Identification of the glycosidase inhibitors swainsonine and calystegine B2 in Weir vine (Ipomoea sp. Q6 [aff. calobra]) and correlation with toxicity” (J Nat Prod, 1995)

Tests used:
Canavalia ensiformis = test: Inhibition of jack bean alpha-mannosidase at 25 to 30 ng/mL by colorimetric assay
[1] = target: T1, Alpha-galactosidase (Aspergillus niger) (UniProt Q9Y865); test: Inhibition of Aspergillus niger alpha-galactosidase at 1.2 ug/mL by colorimetric assay
T1 sequence (whole entry): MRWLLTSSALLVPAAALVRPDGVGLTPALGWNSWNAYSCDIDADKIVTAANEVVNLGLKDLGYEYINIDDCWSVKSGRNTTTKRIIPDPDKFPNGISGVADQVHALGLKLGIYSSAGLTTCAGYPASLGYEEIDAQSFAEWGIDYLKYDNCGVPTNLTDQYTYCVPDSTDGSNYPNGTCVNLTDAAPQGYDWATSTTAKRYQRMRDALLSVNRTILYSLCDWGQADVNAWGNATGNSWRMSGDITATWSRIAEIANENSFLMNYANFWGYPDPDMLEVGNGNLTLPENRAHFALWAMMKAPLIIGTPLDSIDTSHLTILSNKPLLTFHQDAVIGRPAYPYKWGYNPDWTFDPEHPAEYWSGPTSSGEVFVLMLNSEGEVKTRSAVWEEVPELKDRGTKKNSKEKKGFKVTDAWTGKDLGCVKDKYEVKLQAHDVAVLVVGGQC

Prunus dulcis = test: Inhibition of almond beta-glucosidase at 0.6 ug/mL by colorimetric assay

## O[C@H]1[C@H]2[C@H](O)CCCN2C[C@H]1O
Canavalia ensiformis
  inhibition: 50%

## O[C@@H]1[C@@H](O)[C@H](O)[C@]2(O)CC[C@H]1N2
[1]
  inhibition: 50%
Prunus dulcis
  inhibition: 50%
